Patent US20190292189A1, “LIM KINASE INHIBITORS” (VIRONGY, LLC, priority 2016, published 2019)

What was measured:
HIV-1(VSVG) = assay type: cell-based
[1] = test system: VEEV (venezuelan equine encephalitis virus); assay type: cell-based; settings: Vero cells
HIV-1(AD8) = assay type: cell-based; settings: non-toxic dosages
[2] = test system: HIV-1 viral entry in CEM-SS T cells; test: Viral entry assays (BlaM-Vpr, Nef-luciferase); assay type: cell-based; settings: HIV-1 Vpr-β-lactamase or Nef-luciferase tagged virions
resting CD4 T cells = test: SDF-1-mediated actin polymerization, FITC-phalloidin staining; assay type: cell-based, human; settings: pre-treatment of resting CD4 T cells
Protocol: (§1) FIG. 10. Chemical and Biochemical characterization of R10015. a, Chemical structure of R10015 and its docking into the crystal structure of LIMK1 (PDB ID 3S95, Chain A). […] CEM-SS T cells treated with R10015 (100 μM) for a time course, and the phosphorylation of cofilin, LIMK, and PAK1/2 were measured by Western Blot. Levels of each protein or GAPDH were also measured for loading control. d, R10015 inhibits Jurkat T cell chemotaxis in responding to SDF-1. e, R10015. f, R10015 inhibits chemotactic actin activity. Resting CD4 T cells were treated with R10015, and then exposed to SDF-1 for a time course. Actin polymerization were measured by FITC-phalloidin staining. g, the relative intensity of F-actin staining was also plotted.
F-actin staining using phalloidin-FITC (Sigma) was carried out as described previously. Briefly, each staining was carried out using 1×10^6 cells. Cells were pelleted, fixed, and permeabilized with CytoPerm/Cytofix buffer (BD Biosciences) for 20 min at room temperature and washed with cold Perm/Wash buffer (BD Biosciences) twice, followed by staining with 5 μl of 0.3 mM FITC-labeled phalloidin (Sigma) for 30 min on ice in the dark. Cells were washed twice with cold Perm/Wash buffer, then were resuspended in 1% paraformaldehyde, and analyzed on a FACSCalibur (BD Biosciences).

[3] = test system: phosphorylation of PAK1/2; test: Western blot of PAK1/2 phosphorylation in CEM-SS T cells; assay type: cell-based, human
Protocol: as §1
One million cells were lysed in NuPAGE LDS Sample Buffer (Invitrogen), separated by SDS-PAGE, and then transferred onto nitrocellulose membranes (Invitrogen). The membranes were washed in TBST for 3 min and then blocked for 30 min at room temperature with Starting Block blocking buffer (Pierce). For probing with different antibodies, blots were incubated with rabbit anti-LIMK1 antibodies (Cell Signaling), with rabbit anti-p-coflin antibodies (Cell Signaling) or with a mouse anti-PAK1/2 antibody (Cell Signaling). These antibodies were diluted in 2.5% milk/TBST and rocked overnight at 4° C. […]

HIV-1(NL4-3) = assay type: cell-based; settings: non-toxic dosages

## COC(=O)c1ccc2[nH]c(C3CCN(c4ncnc5[nH]cc(Cl)c45)CC3)nc2c1 [Compound R10015, Methyl 2-(1-(5-chloro-7H-pyrrolo[2,3-d]pyrimidin-4-yl)piperidin-4-yl)-1Hbenzo[d]imidazole-5-carboxylate]
HIV-1(VSVG)
  inhibition of VSVG pseudotyped HIV: did not inhibit
[1]
  VEEV infection: inhibited
HIV-1(AD8)
  R5 viral infection of memory CD4 T cells: inhibition
[2]
  viral entry: did not significantly inhibit
Resting CD4 T cells
  SDF-1-mediated actin polymerization: markedly depressed
[3]
  phosphorylation of PAK1/2: not inhibited
HIV-1(NL4-3)
  X4 viral infection of blood resting CD4 T cells: inhibition
